The target in test [1] is T1, STS1-HP (STS1 histidine phosphatase domain) (Homo sapiens, UniProt Q8TF42).
T1 construct: gene UBASH3B
In words: capillary electrophoresis, migration time shift. As to conditions: 20 mM PBS, pH 7.0, 20 kV, UV 230 nm. It counts as binding.

Test [2] deals with T1, STS1-HP (STS1 histidine phosphatase domain). The test is described as follows: pNPP phosphatase inhibition assay, absorbance at […] nm. It counts as biochemical. As to conditions: pNPP substrate, pH 7.2, 25 °C, 10 min; name misprinted as baicalin in b9.
In test [3] the target is T2, STS2-HP (STS2 histidine phosphatase domain) (Homo sapiens, UniProt P57075).
T2 construct: gene UBASH3A
T2 sequence (P57075 385-661 limits assumed): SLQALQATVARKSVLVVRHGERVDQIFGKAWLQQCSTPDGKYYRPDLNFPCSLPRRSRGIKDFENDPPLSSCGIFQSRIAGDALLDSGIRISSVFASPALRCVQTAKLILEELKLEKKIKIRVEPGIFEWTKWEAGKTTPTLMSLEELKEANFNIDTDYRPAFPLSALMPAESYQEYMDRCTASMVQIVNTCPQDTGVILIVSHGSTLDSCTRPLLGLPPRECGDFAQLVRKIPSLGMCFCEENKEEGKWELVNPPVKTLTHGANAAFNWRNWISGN
The description is as above. The test is classed as biochemical. As to conditions: read-out: % inhibition at 10 μg/mL.

Consider 1 molecule from PMC9917816, “STS1 and STS2 Phosphatase Inhibitor Baicalein Enhances the Expansion of Hematopoietic and Progenitor Stem Cells and Alleviates 5-Fluorouracil-Induced Myelosuppression” (International Journal of Molecular Sciences, 2023).

T1 sequence (Q8TF42 380-649 limits assumed): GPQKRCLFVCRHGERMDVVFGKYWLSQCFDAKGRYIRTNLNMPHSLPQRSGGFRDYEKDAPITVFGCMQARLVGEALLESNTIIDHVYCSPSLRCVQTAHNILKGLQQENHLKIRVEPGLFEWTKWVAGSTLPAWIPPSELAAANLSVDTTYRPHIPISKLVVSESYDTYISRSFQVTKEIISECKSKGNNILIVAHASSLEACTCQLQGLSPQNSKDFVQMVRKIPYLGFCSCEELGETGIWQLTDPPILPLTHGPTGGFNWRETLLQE

With `O=c1cc(-c2ccccc2)oc2cc(O)c(O)c(O)c12` [baicalein], the “capillary electrophoresis, migration time shift” value in test [1] was “migration times of STS1 and STS2 proteins were markedly delayed when BC was added”. Besides, the “% inhibition at 10 μg/mL” value in test [2] is “(BC) could significantly inhibit the phosphatase activity of STS1 in vitro”. Further, the inhibition at 10 µg/mL in test [3] is 13.8%.
